The source of these data is patent publication US20120012822A1, “AROMATIC COMPOUND AND METHOD FOR PRODUCING SAME” (KEIO UNIVERSITY, priority 2009, published 2012).

A short description of one data set: Solubility in hexane. It counts as physicochemical. How it is done: Next, 13.5 mg of 5,7,12,14-tetrakis(2-(triethylsilyl)ethyl)pentacene-6,13-dione was added to 51.6 mg of hexane at 22° C., and allowed to completely dissolve.
Next, 9.3 mg of a 1:1 mixture of 4,6,10,12-tetrakis(2-(triethylsilyl)ethyl)anthra[2,3-b : 6,7-b′]dithiophene-5,11-dione and 4,6,10,12-tetrakis(2-(triethylsilyl)ethyl)anthra[2,3-b:7,6-b′]dithiophene-5,11-dione was added to 180.1 mg of hexane at 26° C., and allowed to completely dissolve. The solubility in hexane was 5 wt %.

As usually defined, the melting point is the temperature, or range, at which the solid turns liquid. Turning to `CC[Si](CC)(CC)CCc1c2c(c(CC[Si](CC)(CC)CC)c3ccccc13)C(=O)c1c(c(CC[Si](CC)(CC)CC)c3ccccc3c1CC[Si](CC)(CC)CC)C2=O` [5,7,12,14-tetrakis(2-(triethylsilyl)ethyl)pentacene-6,13-dione], the melting point was 171 to 171.5 °C. In the data set “Solubility in hexane”, this compound registered a solubility in hexane of 26 wt %.
